Measurements: article PMC10065799, “High-throughput profiling of sequence recognition by tyrosine kinases and SH2 domains using bacterial peptide display” (eLife, 2023)
Values belong to the sequence of their own block, whether it stands above or below them.

Assays:
Assay in all cases: pTyr-Var library bacterial peptide display kinase screen (enrichment scores)
EPHB1 kinase domain = format: biochemical, human; conditions: for Screen (variant relative to reference peptide, measured in the pTyr-Var library screen): sheet "EPHB1", variant seq vs reference seq, bacterial peptide display enrichment; for Screen: sheet EPHB1, effect of the variant peptide relative to its reference peptide in the pTyr-Var library screen (enrichment scores)
c-Abl kinase domain = target: T1, c-Abl kinase domain (Mus musculus, UniProt P00520); format: biochemical;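 further: log2 fold change in enrichment of variant over reference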
T1 sequence (P00520 242-493 limits assumed): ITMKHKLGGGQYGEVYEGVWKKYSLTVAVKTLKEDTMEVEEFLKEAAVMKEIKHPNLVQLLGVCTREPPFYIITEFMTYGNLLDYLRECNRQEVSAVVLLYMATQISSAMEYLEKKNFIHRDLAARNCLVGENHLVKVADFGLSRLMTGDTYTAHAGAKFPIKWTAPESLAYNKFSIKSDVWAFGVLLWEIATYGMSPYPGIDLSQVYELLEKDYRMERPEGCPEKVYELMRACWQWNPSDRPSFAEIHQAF

c-Src kinase domain = c-Src kinase domain (Homo sapiens, UniProt P12931); format: biochemical; conditions: sheet "Src";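 further: log2 fold change in enrichment of variant over reference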
Fer kinase domain = format: biochemical, mouse; conditions: sheet "Fer"
[1] = fig5-data2, sheet "Abl", Screen for the variant/reference peptide pair, pTyr-Var library
[2] = variant peptide versus its reference peptide in the pTyr-Var library screen
[3] = sheet "Abl", effect of variant peptide relative to its reference peptide in pTyr-Var library screen (enrichment)
[4] = effect of the variant peptide relative to its reference peptide in the pTyr-Var library screen
[5] = variant peptide relative to its reference peptide, pTyr-Var library screen enrichment
[6] = value of the variant peptide against its reference peptide in the pTyr-Var library screen with Fer

Screen (variant relative to reference peptide, measured in the pTyr-Var library screen) (EPHB1 kinase domain): -0.4562
Sequence: CLGNQYVNVMN [SLC3A1_Y461_R456C]

Screen (c-Abl kinase domain; [1]): -0.5103
Sequence: VCHELYNAIRD [PBRM1_Y54_T56A]

Sequence: VFFDLYGGEKF [PTPN11_Y66_D61V_YF]
Screen (c-Src kinase domain; [2]): -0.4607

Screen (c-Abl kinase domain; [3]): 0.619
Sequence: TVLWLYTGTRP [UGT1A1_Y337_R336L]

Screen (c-Abl kinase domain; [1]): 0.869
Sequence: ARVANYHRDGP [CAT_Y386_Q387H]

Sequence: QMVRMYASSFM [AVPR2_Y124_G122R_YF]
Screen (c-Src kinase domain; [4]): -2.32

Sequence: RRNEIYEIKVD [LGR5_Y387_H383R]
Screen (c-Src kinase domain; [4]): -0.9028

Screen (variant relative to reference peptide, measured in the pTyr-Var library screen) (EPHB1 kinase domain): 0.4122
Sequence: VMLENYSNLLS [ZFP69_Y109_V113L]

Sequence: SSQTIYQRVEG [TFR2_Y23_V22I]
Screen (c-Src kinase domain; [2]): 1.445
Screen (variant relative to reference peptide, measured in the pTyr-Var library screen) (EPHB1 kinase domain): 1.306

Screen (c-Abl kinase domain; [3]): 0.7115
Sequence: TVLWQYTGTRP [UGT1A1_Y337_R336Q]

Sequence: DWRQEYVLNEP [TGM1_Y267_S272P]
Screen (c-Src kinase domain; [2]): 0.4859

Sequence: PLDGEYFSLQI [TP53_Y327_T329S]
Screen (c-Src kinase domain; [2]): 0.4244

Screen (c-Abl kinase domain; [1]): -1.65
Sequence: NDQANYLLNTD [ADA_Y290_S291L]

Screen (c-Abl kinase domain; [1]): -1.351
Sequence: QKPLGYFRVNL [GALE_Y104_D103G_YF]

Sequence: LITTLYSGFLG [KCNQ1_Y267_I268S]
Screen (c-Src kinase domain; [4]): 0.982

Sequence: SNKELYEKFMI [TTN_Y32175_T32171N_YF]
Screen (c-Src kinase domain; [2]): 0.8077
Screen (Fer kinase domain; [5]): 0.5633

Screen (c-Abl kinase domain; [1]): -1.987
Sequence: PQGVSYIFTID [DCX_Y103_R102S_YF]

Screen (c-Abl kinase domain; [1]): -1.592
Sequence: LESETYRRLLD [KRT12_Y429_I426S]

Sequence: PNRILYGDFWQ [MYH7_Y715_R719W]
Screen (c-Src kinase domain; [2]): -0.3786

Screen (c-Abl kinase domain; [1]): 0.8508
Screen (EPHB1 kinase domain): 0.04896
Sequence: ENFSEYQEISV [HEMGN_Y150_A154S]

Sequence: REGKIYEFNQV [ZNF665_Y162_H157R_YF]
Screen (c-Src kinase domain; effect of the variant peptide against its reference peptide, seen in the pTyr-Var library screen): -1.072
Screen (c-Abl kinase domain; [3]): -1.605
Screen (Fer kinase domain; [5]): -0.7739

Sequence: GVLDIYGFDIL [MYO1A_Y382_E385D]
Screen (c-Src kinase domain; [2]): 0.6089

Sequence: DDFDLYGGEKF [PTPN11_Y66_Y62D_YF]
Screen (c-Src kinase domain; [2]): -0.3825
Screen (c-Abl kinase domain; [1]): -0.3703
Screen (Fer kinase domain; [5]): 1.351

Sequence: RNLLIYTEFGK [HGD_Y166_G161R]
Screen (c-Src kinase domain; [4]): -0.2684
Screen (EPHB1 kinase domain): 0.6934

Screen (c-Abl kinase domain; [1]): 1.576
Sequence: EKQLLYLENKT [FRK_Y132_S133L]

Screen (c-Abl kinase domain; [3]): 0.8616
Sequence: KSVEEYANCHL [TF_Y593_P589S]

Screen (c-Abl kinase domain; [1]): 0.05093
Sequence: DLSEVYKPCRK [CCDC93_Y176_R179C]

Sequence: PLDGEYFTHQI [TP53_Y327_L330H]
Screen (c-Src kinase domain; [2]): -1.246

Sequence: PRNLIYFGEHP [TRPV6_Y201_C197R]
Screen (c-Src kinase domain; [2]): -3.508

Sequence: LNPFIYSLRNC [OR1A2_Y288_W293C]
Screen (c-Src kinase domain; [2]): -0.4787
Screen (Fer kinase domain; [6]): -1.075
Screen (EPHB1 kinase domain): -1.104

Screen (c-Abl kinase domain; [1]): 0.5925
Sequence: APAHKYHGGGG [HBD_Y146_L142P]

Sequence: DDEVFYSPLSL [OTC_Y317_R320L]
Screen (c-Src kinase domain; [2]): 2.664
Screen (Fer kinase domain; [6]): 2.858

Sequence: SDPIIYTLENV [ADGRE1_Y534_I539V]
Screen (c-Src kinase domain; [4]): -0.05563
Screen (Fer kinase domain; [6]): -0.559

Sequence: TESALYGCTVV [KIAA1804_Y724_L729V]
Screen (c-Src kinase domain; [4]): -0.09726
Screen (Fer kinase domain; [6]): 0.07488

Screen (Fer kinase domain; [6]): 0.3514
Sequence: VASMFYTLVIP [OR8K3_Y277_I275M]

Screen (c-Abl kinase domain; [1]): 0.9829
Sequence: GDAMLYFPSVS [GPR143_Y177_A173D_YF]

Sequence: LGNIVYSSLCG [BCOR_Y90_P85L]
Screen (c-Src kinase domain; [4]): 0.02175
Screen (Fer kinase domain; [6]): 0.7069

Sequence: KLADIYQAELR [GFAP_Y116_V115I]
Screen (c-Src kinase domain; [4]): 1.355

Screen (c-Abl kinase domain; [3]): 2.994
Sequence: TLLPDYEDEEE [ZNF830_Y159_S154T]

Sequence: EDKFMYSEFPQ [PTEN_Y240_F241S]
Screen (c-Src kinase domain; [2]): 0.2043

Sequence: HNELFYEAAEH [VANGL1_Y345_E347A_YF]
Screen (c-Src kinase domain; [2]): 1.947
Screen (Fer kinase domain; [5]): 1.287

Sequence: TFGNLYGSRKQ [YIPF7_Y59_A54T_YF]
Screen (c-Src kinase domain; [2]): 0.7296
Screen (c-Abl kinase domain; [3]): -3.299

Sequence: RRIHSYRGRLW [VHL_Y112_H115R]
Screen (c-Src kinase domain; [2]): -2.396
Screen (variant relative to reference peptide, measured in the pTyr-Var library screen) (EPHB1 kinase domain): -0.8094

Screen (c-Abl kinase domain; [1]): 0.1591
Sequence: DLGIQYKVLKP [CTNNA1_Y177_A179V]

Sequence: PFTDPYFDFEI [ZC3H18_Y371_A368T_YF]
Screen (c-Src kinase domain; [2]): 0.4384

Sequence: LNPLFYSLRNK [OR5R1_Y290_I289F]
Screen (c-Src kinase domain; [2]): -4.245
Screen (EPHB1 kinase domain): -2.165

Screen (c-Abl kinase domain; [3]): 2.19
Sequence: TTKGAYSLSVR [YES1_Y194_I198V]

Screen (c-Abl kinase domain; [1]): 1.184
Sequence: FDNSVYQKTTE [LDLR_Y828_P826S]

Screen (c-Abl kinase domain; [3]): 1.586
Sequence: VHKKGYNKLNQ [ZNF676_Y98_E96K]

Screen (c-Abl kinase domain; [1]): -1.258
Sequence: ALPGEYIPTVF [RAC1_Y32_F28L]

Sequence: LNPLVYTLRNA [OR4C12_Y285_V283L]
Screen (c-Src kinase domain; [2]): 0.901
